System: 556581-035-R-J1 tumor spheroid viability, % test/control
Experiment: Anticancer human tumor 556581-035-R-J1 patient-derived ovarian carcinoma cell line growth inhibition
Conditions: spheroids with HUVEC and MSC; for IC50: curve of first compound; for viability, T/C: stronger effect = lower value
Text: Multicellular complex tumor spheroid response to DNA repair inhibitors in combination with DNA-damaging drugs
This study explores the anticancer activities of DNA-damaging drugs and inhibitors of DNA damage repair, both as single agents and in combinations. Complex tumor spheroids comprised of malignant cells, endothelial cells and mesenchymal stem cells served as an in vitro model for human solid tumors. This model system incorporates physiologically relevant features and patient-derived or established malignant cell lines with clinically relevant genetic alterations from many tumor types. Twenty-six patient-derived or established malignant cell lines were evaluated representing sarcoma, melanoma, small cell lung cancer (SCLC), non-small cell lung cancer (NSCLC), as well as bladder, ovarian and pancreatic cancers. The concentration ranges selected for each drug and investigational agent were based upon clinically achievable concentrations if the clinical Cmax of the agent was known.
Compounds. The drugs and compounds olaparib (NSC753686), talazoparib (NSC767125), berzosertib (NSC777718), elimusertib (NSC800525), nedisertib (NSC802822), VX-984 (NSC792969), AZD-1390 (NSC803789), temozolomide (NSC362856), topotecan (NSC609699), trabectedin (NSC813783), staurosporine (NSC755774), and gemcitabine (NSC613327) were obtained from the National Cancer Institute (NCI) Developmental Therapeutics Program Chemical Repository. The FDA-approved anticancer drug set is available from the Developmental Therapeutics Program at https://dtp.cancer.gov/organization/dscb/obtaining/available_plates.htm. […] The stock solutions were prepared in dimethyl sulfoxide (DMSO, Sigma-Aldrich, St. Louis, MO, cat. D2650) at 400-fold the tested concentration and stored at -70 degrees C. Prior to their use, the stock solutions were diluted in fresh medium and the final DMSO concentration in the assay was 0.25% (v/v). All drugs and investigational agents were tested over a range starting from a high concentration at or near the clinical Cmax and decreasing in half-log increments. If the clinical Cmax for an agent had not been determined, the highest concentration tested was 10 microM.
Cell Lines. The patient-derived cancer cell (PDC) lines: 156681-154-R-J1-PDC, 283228-195-R-J1-PDC, 287954-098-R-J1-PDC, 292921-168-R-J2-PDC, 349418-098-R-PDC, 425362-245-T-J1-PDC, 556581-035-R-J1-PDC, and BL0293-F563-PDC were received from the NCI Patient-Derived Models Repository (PDMR, https://pdmr.cancer.gov). The established cell lines HS-SY-2 (RRID:CVCL_8719), MPNST, and SYO-1 (RRID:CVCL_7146) were obtained from the Sloan Kettering Institute. The alveolar soft parts sarcoma cell line ASPS-1 (RRID:CVCL_S738) was established at the NCI and grown from internal seed stocks. The following established cell lines were purchased from the American Type Culture Collection (ATCC, Manassas, VA): G-401 (ATCC, cat. CRL-1441, RRID:CVCL_0270), SW982 (ATCC, cat. HTB-93, RRID:CVCL_1734), VA-ES-BJ (ATCC, cat. CRL-2138, RRID:CVCL_1785), NCI-H719 (ATCC, cat. CRL-5837, RRID:CVCL_1582), NCI-H196 (ATCC, cat. CRL-5823, RRID:CVCL_1509), NCI-H841 (ATCC, cat. CRL-5845, RRID:CVCL_1595), NCI-H1618 (ATCC, cat. CRL-5879, RRID:CVCL_1480), NCI-H1876 (ATCC, cat. CRL-5902, RRID:CVCL_1503), DMS 114 (ATCC, cat. CRL-2066; RRID:CVCL_1174), NCI-H211 (ATCC, cat. CRL-5824; RRID:CVCL_1529), and SW 1271 (ATCC, cat. CRL-2177, RRID:CVCL_1716). The small cell lung cancer cell line COR-L88 was purchased from Sigma-Aldrich (cat. 92031917-1VL, RRID:CVCL_1141). The non-small cell lung cancer cell lines NCI-H226 (RRID:CVCL_1544) and NCI-H322M (RRID:CVCL_1557) were established at the NCI and grown from internal seed stocks. Pooled donor human umbilical vein endothelial cells (HUVEC, Lonza, cat. CC-2519) and human mesenchymal stem cells (hMSC, Lonza, cat. PT-2501) were purchased from Lonza (Walkersville, MD).
Cell Culture. All cells were maintained in an incubator at 37 degrees C and 5% CO2 with 95% humidity. […]

[1] = second compound 0.003 µM, first compound 0.00949 µM
[2] = second compound 0.003 µM, first compound 0.03 µM
[3] = second compound 0.003 µM, first compound 0.0949 µM
[4] = second compound 0.003 µM, first compound 0.3 µM
[5] = second compound 0.003 µM, first compound 0.949 µM
[6] = second compound 0.003 µM, first compound 3 µM
[7] = second compound 0.00949 µM, first compound 0.00949 µM
[8] = second compound 0.00949 µM, first compound 0.03 µM
[9] = second compound 0.00949 µM, first compound 0.0949 µM
[10] = second compound 0.00949 µM, first compound 0.3 µM
[11] = second compound 0.00949 µM, first compound 0.949 µM
[12] = second compound 0.00949 µM, first compound 3 µM
[13] = second compound 0.03 µM, first compound 0.00949 µM
[14] = second compound 0.03 µM, first compound 0.03 µM
[15] = second compound 0.03 µM, first compound 0.0949 µM
[16] = second compound 0.03 µM, first compound 0.3 µM
[17] = second compound 0.03 µM, first compound 0.949 µM
[18] = second compound 0.03 µM, first compound 3 µM
[19] = second compound 0.0949 µM, first compound 0.00949 µM
[20] = second compound 0.0949 µM, first compound 0.03 µM
[21] = second compound 0.0949 µM, first compound 0.0949 µM
[22] = second compound 0.0949 µM, first compound 0.3 µM
[23] = second compound 0.0949 µM, first compound 0.949 µM
[24] = second compound 0.0949 µM, first compound 3 µM
[25] = second compound 0.3 µM, first compound 0.00949 µM
[26] = second compound 0.3 µM, first compound 0.03 µM
[27] = second compound 0.3 µM, first compound 0.0949 µM
[28] = second compound 0.3 µM, first compound 0.3 µM
[29] = second compound 0.3 µM, first compound 0.949 µM
[30] = second compound 0.3 µM, first compound 3 µM
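Further: spheroids exposed to compounds for 7 days before viability read.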

| Structure (SMILES) | IC50 (second compound 0.003 µM) | IC50 (second compound 0.00949 µM) | IC50 (second compound 0.03 µM) | IC50 (second compound 0.0949 µM) | IC50 (second compound 0.3 µM) | viability, T/C [1] | viability, T/C [2] | viability, T/C [3] | viability, T/C [4] | viability, T/C [5] | viability, T/C [6] | viability, T/C [7] | viability, T/C [8] | viability, T/C [9] | viability, T/C [10] | viability, T/C [11] | viability, T/C [12] | viability, T/C [13] | viability, T/C [14] | viability, T/C [15] | also measured |
| --- | --- | --- | --- | --- | --- | --- | --- | --- | --- | --- | --- | --- | --- | --- | --- | --- | --- | --- | --- | --- | --- |
| CNCc1ccc(-c2cc(-c3nc(-c4ccc(S(=O)(=O)C(C)C)cc4)cnc3N)on2)cc1 + CC[C@@]1(O)C(=O)OCc2c1cc1n(c2=O)Cc2cc3c(CN(C)C)c(O)ccc3nc2-1 | 1.38 µM | 1.17 µM | 0.854 µM | 0.27 µM | < 0.00949 µM | 101% | 94.6% | 100% | 104% | 67.6% | 13.7% | 88.7% | 90.5% | 87.1% | 93.6% | 59% | 9.61% | 83.7% | 84.7% | 92.4% | viability, T/C [16]: 75%; viability, T/C [17]: 47.8%; viability, T/C [18]: 9.43%; viability, T/C [19]: 64.4%; viability, T/C [20]: 67%; viability, T/C [21]: 59%; viability, T/C [22]: 47.6%; viability, T/C [23]: 31.3%; viability, T/C [24]: 1.58%; viability, T/C [25]: 16.8%; viability, T/C [26]: 15.9%; viability, T/C [27]: 14.3%; viability, T/C [28]: 11.8%; viability, T/C [29]: 8.45%; viability, T/C [30]: 0.85% |
| Cc1sc2c(c1C)C(c1ccc(Cl)cc1)=NC(CC(=O)Nc1ccc(O)cc1)c1nnc(C)n1-2 (stereo not given) + CC[C@@]1(O)C(=O)OCc2c1cc1n(c2=O)Cc2cc3c(CN(C)C)c(O)ccc3nc2-1 | > 3 µM | > 3 µM | > 3 µM | 0.281 µM | < 0.00949 µM | 103% | 85.4% | 83.8% | 74.8% | 77.5% | 74.2% | 99.4% | 84.3% | 74% | 68.8% | 71.4% | 64.2% | 74.3% | 76.5% | 68.8% | viability, T/C [16]: 66.7%; viability, T/C [17]: 65.6%; viability, T/C [18]: 54.7%; viability, T/C [19]: 59.3%; viability, T/C [20]: 58.4%; viability, T/C [21]: 56.2%; viability, T/C [22]: 50.7%; viability, T/C [23]: 39.6%; viability, T/C [24]: 41.4%; viability, T/C [25]: 16.4%; viability, T/C [26]: 16.9%; viability, T/C [27]: 12.9%; viability, T/C [28]: 17.1%; viability, T/C [29]: 18.6%; viability, T/C [30]: 11.3% |

From PubChem BioAssay AID1845199 (Molecular Pharmacology Branch, DTP, NCI, 2023)
